Laboratory results from US20230295152A1 (SENDA BIOSCIENCES, INC., priority 2019, published 2023).
Read-outs that look alike come from different tables or passages of the source.

Assays:
Format in all cases: in vitro ADME
[1] = Hepatocyte Stability Assay, human; details: for CLint scaled at 1 μM: cryopreserved hepatocytes in suspension, human hepatocytes, read-out: Human hepatocyte clearance; for Human hepatocyte intrinsic clearance, suspension Hheps ClInt (% Qh): suspension human hepatocytes
[2] = Hepatocyte Stability Assay, mouse; on all read-outs here: tested at 1 µM; details: for Suspension mou. heps Clint (% Qh): suspension mouse hepatocytes; for Mouse hepatocyte clearance: mouse hepatocytes
Protocol: Example 7: Hepatocyte Stability Assay
(§1) • Preparation of working solutions: 10 mM stock solutions of test compound and positive control were prepared in DMSO. In separate conical tubes, the 10 mM solution of test compound and the positive control were diluted to 100 μM by combining 198 μL of 50% acetonitrile/50% water and 2 μL of 10 mM stock.
(§2) Data Analysis: All calculations were carried out using Microsoft Excel. Peak areas were determined from extracted ion chromatograms. In vitro half-life (t1/2) of parent compound was determined by regression analysis of the percent parent disappearance vs. time curve.
(§3) The in vitro half-life (in vitro t1/2) was determined from the slope value:
(§4) Conversion of the in vitro t1/2 (in min) into the in vitro intrinsic clearance (in vitro CLint, in μL/min/1×10^6 cells) was done using the following equation (mean of duplicate determinations):
(§5) V=incubation volume(0.2 mL);
(§6) N=number of hepatocytes per well(0.1×10^6 cells).

[3] = Hepatocyte Stability Assay, rat; details: for Rat hepatocyte clearance: rat hepatocytes; for Suspension Rat heps Clint (% Qh): suspension rat hepatocytes; on all read-outs here: tested at 1 µM
Protocol: as §1
Preparation of Hepatocytes: Incubation medium (William's E Medium supplemented with GlutaMAX) and hepatocyte thawing medium were placed in a 37° C. water bath and allowed warming for at least 15 minutes prior to use. A vial of cryopreserved hepatocytes was transferred from storage, ensuring that vials remained at cryogenic temperatures until thawing process ensued. Cells were thawed by placing the vial in a 37° C. water bath and gently shaking the vials for 2 minutes. After thawing was completed, vial was sprayed with 70% ethanol and transferred to a biosafety cabinet. Wide-bore pipette tip were used to transfer hepatocytes into 50 mL conical tube containing thawing medium. The 50 mL conical tube were placed into a centrifuge and spun at 100 g for 10 minutes. Upon completion of spin, thawing medium was aspirated and resuspended hepatocytes in enough incubation medium to yield ˜1.5×10^6 cells/mL. Using an AO/PI Staining, cells were counted and the viable cell density was determined. Cells with poor viability (<75% viability) were determined to be not acceptable for use. Cells were diluted with incubation medium to a working cell density of 0.5×10^6 viable cells/mL.
Procedure for Stability Determination: 198 μL of hepatocytes were pipetted into each wells of a 96-well non-coated plate. The plate was placed in the incubator to allow the hepatocytes to warm for 10 minutes. 2 μL of the 100 μM test compound or positive control solutions were pipetted into respective wells of the 96-well non-coated plate to start the reaction. The plate was returned to the incubator for the designed time points. Well contents was transferred in 25 μL aliquots at time points of 0, 15, 30, 60, 90 and 120 minutes. The aliquots were then mixed with 6 volumes (150 μL) of acetonitrile containing internal standard, IS (100 nM alprazolam, 200 nM caffeine and 100 nM tolbutamide) to terminate the reaction. The mixture was vortex for 5 minutes. Samples were centrifuged for 45 minutes at 3,220 g. An aliquot of 100 μL of the supernatant was diluted by 100 μL ultra-pure water, and the mixture was used for LC/MS/MS analysis. All incubations were performed in duplicate.
as §2, §3, §4, §5, §6
“+++” indicates a CLint value less than 20 mL/min/Kg, “++” indicates a CLint between 20 and 50 mL/min/Kg, and “+” indicates an CLint above 50 mL/min/Kg.

[4] = Hepatocyte Stability Assay, human; details: for CLint scaled: human, plated hepatocytes; for CLint scaled / Human hepatocyte clearance Plated hepatocyte Alliance assay: plated hepatocyte; for Plated heps (% Qh) / Plated heps (% Qh), All: plated human hepatocytes; for Plated heps (% Qh), All: value in brackets marked "All"
[5] = Plasma Protein Binding with Ultracentrifugation Method, mouse; details: for fraction unbound at 30 min, 1 μM: mouse plasma, read-out: Mouse plasma protein binding (% bound); for fraction unbound at 5.5 h, 1 μM: mouse, plasma, read-out: Plasma Protein Binding PPB (m) % (converted)
Protocol: (§7) The frozen plasma (stored at −80° C.) was thawed in a 37° C. water bath, followed by centrifugation at 3,220 g for 10 minutes to remove clots. The supernatant was removed into a new tube as the spun plasma. The spun plasma was pre-warmed in a 37° C. water bath for 10 minutes. The stock solutions of test compounds were diluted to 200 μM in DMSO, and then spiked into the plasma. Duplicate samples were prepared. The final concentration of compound was 1.0 μM. The final concentration of organic solvent was 0.5%. Warfarin was used as positive control in the assay. 1.0 mL of the spiked plasma was transferred to a new balance ultracentrifuge tube. Samples were incubated at 37° C., 5% CO2 for 30 minutes. After incubation, the balance ultracentrifuge tubes were centrifuged at 600,000 g for 5.5 hours at 37° C. After centrifugation, 50 μL solution was removed from the center of the ultracentrifuge tubes as the post-ultracentrifugation samples, followed by the addition of 50 μL blank plasma and 400 μL quench solution (acetonitrile containing internal standards (IS, 100 nM Alprazolam, 500 nM Labetalol and 2 μM Ketoprofen)) to precipitate protein and release compounds. Samples were vortexed for 2 minutes, followed by centrifugation at 20,000 g for 15 minutes at room temperature. The supernatant was diluted with ultrapure water and then used for LC-MS/MS analysis. Stability samples was prepared by transferring 50 μL of the spiked plasma to 0.6 mL tubes and incubated at 37° C., 5% CO2 for 0.5 and 6 hours. After incubation, 50 μL PBS (100 mM, pH7.4) and 400 μL quench solution were added to the stability samples. And then stability samples were treated the same way as the post-ultracentrifugation samples. The supernatant was diluted with ultrapure water and then used for LC-MS/MS analysis. 0.5 hour time point samples were also used as no-spun controls. Time 0 samples were prepared by transferring 50 μL spiked plasma to 0.6 mL tubes containing 50 μL PBS, followed by the addition of 400 μL quench solution to precipitate protein and release compound. And then these samples were treated the same way as the post-ultracentrifugation samples. The supernatant was diluted with ultrapure water and then used for LC-MS/MS analysis.
(§8) Data Analysis: All calculations were carried out using Microsoft Excel. The concentrations of test compound in plasma samples and post-ultracentrifugation plasma was determined from peak areas. The percentages of test compound bound was calculated as follows: […]
(§9) “+++” indicates a % bound value less than 50, “++” indicates a % bound value between 50 and 75, and “+” indicates a % bound value above 75.

[6] = Plasma Protein Binding with Ultracentrifugation Method, human; details: for fraction unbound at 30 min, 1 μM: human plasma, read-out: Human plasma protein binding (% bound); for fraction unbound at 5.5 h, 1 μM: human, plasma, read-out: Plasma Protein Binding PPB (h) % (converted)
Protocol: as §7, §8, §9

[7] = Pharmaron assay, read-out: Human hepatocyte clearance Plated hepatocyte Pharmaron assay

SMILES | CLint scaled at 1 μM [1] [mL/min/kg] | CLint scaled [4, 7] [mL/min/kg] | fraction unbound at 30 min, 1 μM [5] | fraction unbound at 30 min, 1 μM [6] | CLint scaled ([4]; Alliance assay, read-out: Human hepatocyte clearance Plated hepatocyte Alliance assay) [mL/min/kg] | Human hepatocyte intrinsic clearance, suspension Hheps ClInt (% Qh) [1] [% Qh] | Suspension mou. heps Clint (% Qh) [2] [% Qh] | Rat hepatocyte clearance [3] | Suspension Rat heps Clint (% Qh) [3] [% Qh] | Human hepatocyte clearance Plated hepatocyte Alliance assay ([4]; Alliance assay) | Plated heps (% Qh) [4] [% Qh] | Plated heps (% Qh), All [4] [% Qh] | fraction unbound at 5.5 h, 1 μM [5] | fraction unbound at 5.5 h, 1 μM [6] | Mouse hepatocyte clearance [2]
CC(C)(O)Cn1cnc2c(-c3cccnc3)nc(-c3ccc(C(F)(F)F)nc3)cc2c1=O [Compound 9] | < 20 | < 20 | < 0.25 | < 0.25 |  | <31 | < 33 | +++ (“+++” indicates a CLint value less than 20 mL/min/Kg) | < 24 | +++ (“+++” indicates a CLint value less than 20 mL/min/Kg) | 2.1 | 0.6 | 0.104 | 0.109 | 
C[C@@H](CO)n1cnc2c(-c3cccnc3)nc(-c3ccc(OC(F)(F)F)cc3)cc2c1=O [Compound 22] | < 20 |  | < 0.25 | < 0.25 |  |  |  | ++ (“++” indicates a CLint between 20 and 50 mL/min/Kg) |  |  |  |  |  |  | ++ (“++” indicates a CLint between 20 and 50 mL/min/Kg)
C[C@H](n1cnc2c(-c3cnn(C)c3)nc(-c3ccc(Cl)cc3)cc2c1=O)C(C)(C)O [Compound 30] | < 20 | < 20 | < 0.25 |  |  |  |  | ++ (“++” indicates a CLint between 20 and 50 mL/min/Kg) |  |  |  |  |  |  | ++ (“++” indicates a CLint between 20 and 50 mL/min/Kg)
C[C@@H](CO)n1cnc2c(-c3cccnc3)nc(-c3ccc(C(F)(F)F)cn3)cc2c1=O [Compound 46, (S)-3-(1-hydroxypropan-2-yl)-8-(pyridin-3-yl)-6-(5-(trifluoromethyl)pyridin-2-yl)pyrido[3,4-d]pyrimidin-4(3H)-one] | < 20 | < 20 | < 0.25 | < 0.25 |  | <31 | < 33 | +++ (“+++” indicates a CLint value less than 20 mL/min/Kg) | < 24 | +++ (“+++” indicates a CLint value less than 20 mL/min/Kg) | < 1 | 1.0 | 0.075 | 0.108 | ++ (“++” indicates a CLint between 20 and 50 mL/min/Kg)
Cn1cc(-c2nc(-c3ccc(C(F)(F)F)nc3)cc3c(=O)n(CC(C)(C)O)cnc23)cn1 [Compound 60] | < 20 | < 20 | < 0.25 | < 0.25 |  |  |  | +++ (“+++” indicates a CLint value less than 20 mL/min/Kg) |  |  |  |  |  |  | ++ (“++” indicates a CLint between 20 and 50 mL/min/Kg)

Now from value to compound, other results behind:

CLint scaled at 1 μM [1] [mL/min/kg] | CLint scaled [4, 7] [mL/min/kg] | fraction unbound at 30 min, 1 μM [5] | fraction unbound at 30 min, 1 μM [6] | CLint scaled ([4]; Alliance assay, read-out: Human hepatocyte clearance Plated hepatocyte Alliance assay) [mL/min/kg] | SMILES | Human hepatocyte intrinsic clearance, suspension Hheps ClInt (% Qh) [1] [% Qh] | Suspension mou. heps Clint (% Qh) [2] [% Qh] | Rat hepatocyte clearance [3] | Suspension Rat heps Clint (% Qh) [3] [% Qh] | Human hepatocyte clearance Plated hepatocyte Alliance assay ([4]; Alliance assay) | Plated heps (% Qh) [4] [% Qh] | Plated heps (% Qh), All [4] [% Qh] | fraction unbound at 5.5 h, 1 μM [5] | fraction unbound at 5.5 h, 1 μM [6] | Mouse hepatocyte clearance [2]
< 20 |  | < 0.25 | < 0.25 | < 20 | C[C@@H](CO)n1cnc2c(-c3cccnc3)nc(-c3ccc(C(F)(F)F)nc3)cc2c1=O [Compound 12] |  |  | +++ (“+++” indicates a CLint value less than 20 mL/min/Kg) |  |  |  |  |  |  | ++ (“++” indicates a CLint between 20 and 50 mL/min/Kg)
< 20 | < 20 | < 0.25 | < 0.25 |  | CC(C)(O)Cn1cnc2c(-c3cccnc3)nc(-c3ccc(C(F)(F)F)cc3)cc2c1=O [Compound 16] |  |  | +++ (“+++” indicates a CLint value less than 20 mL/min/Kg) |  |  |  |  |  |  | ++ (“++” indicates a CLint between 20 and 50 mL/min/Kg)
< 20 | < 20 | < 0.25 | < 0.25 |  | CC(C)(O)Cn1cnc2c(-c3cccnc3)nc(-c3ccc(Cl)cc3)cc2c1=O [Compound 18] |  |  | +++ (“+++” indicates a CLint value less than 20 mL/min/Kg) |  |  |  |  |  |  | + (“+” indicates an CLint above 50 mL/min/Kg)
< 20 | < 20 | < 0.25 | < 0.25 |  | CC(C)(O)Cn1cnc2c(-c3cccnc3)nc(-c3ccc(C(F)(F)F)cn3)cc2c1=O [Compound 105] |  |  | +++ (“+++” indicates a CLint value less than 20 mL/min/Kg) |  |  |  |  |  |  | ++ (“++” indicates a CLint between 20 and 50 mL/min/Kg)
